Data taken from US10946024B2, “Method for treating cancer” (Epizyme, Inc., priority 2014, dated 2021).

Legend:
Format in all cases: cell-based, human
HS-SY-II cells = experiment: Adherent cell line long-term (14-day) proliferation assay, CellTiter-Glo; settings: 14-day long-term proliferation assay
Method: (§1) 96-well plating for 7 day assay: For each adherent cell line, plated cells in a volume of 100 μL in 96-well plates, to be treated in triplicate, either in the evening (to treat with compound the following day) or in morning (to treat with compound in the evening), to allow cells to attach to plates before compound treatment.
(§2) 6-well plates to be split for 7-14 day assay: Plated 2 mL of cells at the correct density in each well of the 6-well plate. Calculated the correct density from the 96-well plate growth curve by multiplying the 96-well density by 30. The factor 30 came from growth area of the 6-well plate divided by the growth area of the 96-well plate (9.5 cm^2/0.32 cm^2=29.7, rounded up to 30), which corresponds to 30-fold more surface area in a 6-well vs. a 96-well plate.
(§3) Day 0: Treated with compound or DMSO by removing media and adding back either 100 μL (for 96-well plate) or 2 mL (for 6-well plate) media with the correct dilutions of compound/DMSO. Table 1 includes an example of 96-well plate map. Plates were incubated for 96 hours.
(§4) Read one 96-well plate with CellTiter-Glo® for a Day 0 reading (media change not necessary for this plate).
(§5) Day 4: Read one 96-well plate with CellTiter-Glo® for a Day 4 reading (media change not necessary for this plate before reading). Replaced media with fresh media containing compound on Day 4 in 96-well plates and 6-well plates.
(§6) Day 7: read final 96-well plate with CellTiter-Glo®.
(§7) Counted individual wells of 6-well plates, and replated cells to initial plating density in 96-well plates, as described above.
(§8) Repeated steps for Days 0-7 for Days 7-14 of the proliferation assay.
(§9) Particularly, approximately 12 hours before compound treatment, HS-SY-II or SW982 cells were plated at the density of 24,000 cells/well and 7,500 cells/well, respectively in 6-well plates. On day 0, cells were treated with either DMSO or compound starting at 10 μmol/L and decreasing in fourfold dilutions. On day 7, the cells in 6-well plates were trypsinized, counted by TC10 automated cell counter (Bio-Rad, Richmond, Calif.) and replated at the density of 800 cells/well and 250 cells/well for HS-SY-II and SW982, respectively in 96-well plates in triplicate. The cells were allowed to adhere to the plate overnight, and treated with either DMSO or compound as on Day 0. On days 0, 7, 11, and 14, cell viability was determined by CellTiter-Glo® Luminescent Cell Viability Assay (Promega) with EnVision 2103 Multilabel Reader (Perkin-Elmer, Wellesley, Mass.). Compound/media was changed with new one on Day 4 and 11. The ratios of the measured values on Days 7, 11, and 14 to that of day 7 were used to plot proliferation from day 7 to day 14, and to calculate the IC50 values on Day 14. […]

SW982 cells = experiment: as above; settings: SW982, 14-day long-term proliferation assay
Method: as §1, §2, §3, §4, §5, §6, §7, §8, §9

[1] = system: ATF3, EGR1, CDKN2A expression in HS-SY-II cells; experiment: Gene expression changes in vitro by RT-PCR, normalized to GAPDH; parameters: key to ATF3 expression change, significance 0 uM vs. / EGR1 expression change, significance 0 uM vs. / CDKN2A expression change, significance 0 uM vs.: *: Asterisks mean significant changes compared to levels of 0 μM-treated groups.; **: Asterisks mean significant changes compared to levels of 0 μM-treated groups.; ***: Asterisks mean significant changes compared to levels of 0 μM-treated groups.; ****: Asterisks mean significant changes compared to levels of 0 μM-treated groups; settings: for ATF3 expression change, significance 0 uM vs. / CDKN2A expression change, significance 0 uM vs. / EGR1 expression change, significance 0 uM vs.: HS-SY-II
Method: (§10) HS-SY-II and SW982 cells were treated with EZH2 inhibitors (Compound A or EPZ-011989) and collected at the indicated time points. Total RNA isolation and cDNA synthesis were performed using the TaqMan Gene Expression Cells-to-CT kit (4399002, Life technologies) according to the manufacturer's protocol. ATF3, EGR1, CDKN2A and GAPDH expression were analyzed by using the TaqMan Gene Expression Assays (Life technologies, 4331182) and the TaqMan Probes (Hs00231069_m1, Hs00152928_m1, Hs00233365_m1, and Hs99999905_m1, respectively).

[2] = system: ATF3, EGR1 expression in SW982 cells; experiment: as above; parameters: key to EGR1 expression change, significance 0 uM vs.: *: Asterisks mean significant changes compared to levels of 0 μM-treated groups.; **: Asterisks mean significant changes compared to levels of 0 μM-treated groups.; ***: Asterisks mean significant changes compared to levels of 0 μM-treated groups.; ****: Asterisks mean significant changes compared to levels of 0 μM-treated groups
Method: as §10

| Compound | sensitivity of cell proliferation (HS-SY-II cells) | sensitivity of cell proliferation (SW982 cells) | ATF3 and EGR1 expression ([1]; HS-SY-II in vitro culture) | CDKN2A expression ([1]; HS-SY-II in vitro culture) | ATF3 expression change, significance 0 uM vs. ([1]; 0.1 uM, day 4) | CDKN2A expression change, significance 0 uM vs. ([1]; 0.1 uM, day 4) | EGR1 expression change, significance 0 uM vs. ([1]; 0.1 uM, day 4) | ATF3 expression change, significance 0 uM vs. ([1]; 1 uM, day 2) | CDKN2A expression change, significance 0 uM vs. ([1]; 1 uM, day 2) | ATF3 expression change, significance 0 uM vs. ([1]; 1 uM, day 4) | CDKN2A expression change, significance 0 uM vs. ([1]; 1 uM, day 4) | EGR1 expression change, significance 0 uM vs. ([1]; 1 uM, day 4) | ATF3 expression change, significance 0 uM vs. ([1]; 1 uM, day 7) | CDKN2A expression change, significance 0 uM vs. ([1]; 1 uM, day 7) | EGR1 expression change, significance 0 uM vs. ([1]; 1 uM, day 7) | EGR1 expression change, significance 0 uM vs. ([2]; SW 982, 0.1 uM, day 2) | EGR1 expression change, significance 0 uM vs. ([2]; SW 982, 0.1 uM, day 4) | EGR1 expression change, significance 0 uM vs. ([2]; SW 982, 1 uM, day 7) | ATF3 and EGR1 expression ([2]; SW982 in vitro culture) |
| --- | --- | --- | --- | --- | --- | --- | --- | --- | --- | --- | --- | --- | --- | --- | --- | --- | --- | --- | --- |
| CCN(c1cc(-c2ccc(CN3CCOCC3)cc2)cc(C(=O)NCc2c(C)cc(C)[nH]c2=O)c1C)[C@H]1CC[C@H](N(C)C)CC1 [Compound E] | high sensitivity | did not | – | – | – | – | – | – | – | – | – | – | – | – | – | – | – | – | – |
| CCN(c1cc(C#CCN2CCOCC2)cc(C(=O)NCc2c(C)cc(C)[nH]c2=O)c1C)C1CCC(N(C)CCOC)CC1 (stereo not shown) [EPZ-011989] | – | – | upregulated | Dose- and time-dependent CDKN2A upregulation | ** | **** | ** | * | *** | * | **** | ** | ** | **** | ** | * | ** | * | not in SW982 |
